pIC50: −log10 of the molar value.

Data set [1] in a line: Antiproliferative activity against human NCI-H196 cells incubated for 72 hrs. Type of data set: functional, cell-based. As to conditions: NCI-H196, 72 h.
A further data set concerns NCI-H446. Kind of data set: Antiproliferative activity against human NCI-H446 cells incubated for 72 hrs. The format is functional, cell-based. As to conditions: NCI-H446, 72 h.
For a further data set, the system named is NCI-H146. Kind of data set: Antiproliferative activity against human NCI-H146 cells incubated for 72 hrs. The format is functional, cell-based. As to conditions: NCI-H146, 72 h.
Data set [2] in a line: Antiproliferative activity against human L02 cells incubated for 72 hrs. The format is toxicity, cell-based.
The test system of a further data set is SHP77. Kind of data set: Antiproliferative activity against human SHP77 cells incubated for 72 hrs. Type of data set: functional, cell-based. As to conditions: SHP77, 72 h.
The next data set has as its system NCI-H209. Kind of data set: Antiproliferative activity against human NCI-H209 cells incubated for 72 hrs. The format is functional, cell-based. As to conditions: NCI-H209, 72 h.
Data set [3] can be described thus: Antiproliferative activity against human BEAS-2B cells incubated for 72 hrs. Type of data set: toxicity, cell-based.
The test system of the next data set is NCI-H1048. Kind of data set: Antiproliferative activity against human NCI-H1048 cells incubated for 72 hrs. The format is functional, cell-based. As to conditions: NCI-H1048, 72 h.
Another data set has as its system NCI-H82. Kind of data set: Antiproliferative activity against human NCI-H82 cells incubated for 72 hrs. The format is functional, cell-based. As to conditions: NCI-H82, 72 h.

For `c1c(CN2CC3(CCC3)C2)c(-c2cc3ccc4c(c3cn2)OCO4)cc2c1OCO2`, the negative-log IC50 (pIC50) in data set [1] was 4.51; in the data set with NCI-H446, 4.61; in the data set with NCI-H146 it was < 4.00; in the data set on SHP77, 4.42; in the data set on NCI-H209, 4.30; in the data set with NCI-H1048, 4.52. Moreover, in the data set with NCI-H82, the negative logarithm of the IC50 (pIC50) was 4.24. For the same compound, the 50% inhibitory concentration (IC50) at 72 h in data set [2] is > 100 µM; in data set [3], 30.4 µM.

As to `CC1CCN(Cc2cc3c(cc2-c2cc4ccc5c(c4cn2)OCO5)OCO3)CC1`, the pIC50 in data set [1] was 4.58; in the data set on NCI-H446, 4.37; with NCI-H146, 4.36; with SHP77, 4.51; in the data set on NCI-H209, 4.25; in the data set with NCI-H1048, 4.91. In the data set with NCI-H82, this compound showed a pIC50 of 4.59. Besides, the concentration for half-maximal inhibition (IC50) at 72 h in data set [2] stood at 34.9 µM; in [3], 23.7 µM.

With `CCCC1CCN(Cc2cc3c(cc2-c2cc4ccc5c(c4cn2)OCO5)OCO3)CC1`, the pIC50 was 4.99 in [1]; 4.84 in the data set with NCI-H446; 4.43 with NCI-H146; 4.55 with SHP77; 4.19 with NCI-H209; < 4.00 in the data set with NCI-H1048. In addition, the pIC50 in the data set with NCI-H82 is < 4.00. In addition, the values for the IC50 at 72 h in data set [2] and in data set [3] were 84.2 µM and > 100 µM, respectively.

On to `CC(C)(C)C1CCN(Cc2cc3c(cc2-c2cc4ccc5c(c4cn2)OCO5)OCO3)CC1`, for which the pIC50 is 5.12 in data set [1]; 5.15 with NCI-H446; 4.99 with NCI-H146; 5.07 with SHP77; < 4.00 in the data set on NCI-H209; 5.57 with NCI-H1048. This compound had a pIC50 with NCI-H82 of 5.53. Further, the IC50 at 72 h in data set [2] and in [3] was > 100 µM each time.

`c1c(CN2CC3(CCCC3)C2)c(-c2cc3ccc4c(c3cn2)OCO4)cc2c1OCO2`: the negative-log IC50 (pIC50) in data set [1] is 4.80; in the data set on NCI-H446 it was 4.73; with NCI-H146, 4.54; in the data set on SHP77, 4.51; with NCI-H209, 4.47; in the data set with NCI-H1048, 4.70. In addition, the pIC50 in the data set with NCI-H82 was 4.58. Moreover, the IC50 at 72 h in data set [2] was > 100 µM; in data set [3] it was 14.8 µM.

For the compound `c1c(CN2CCCCCCC2)c(-c2cc3ccc4c(c3cn2)OCO4)cc2c1OCO2`, the pIC50 is 4.96 in data set [1]; 5.83 in the data set on NCI-H446; 4.82 in the data set with NCI-H146; 5.29 in the data set on SHP77; 4.57 in the data set on NCI-H209; 5.29 in the data set on NCI-H1048. In the data set with NCI-H82, this compound showed a pIC50 of 4.99. The IC50 at 72 h in data set [2] turned out to be 23 µM; in data set [3] it was 24.3 µM.

`CC[C@@]1(O)C(=O)OCc2c1cc1n(c2=O)Cc2cc3c(CN(C)C)c(O)ccc3nc2-1` [TOPOTECAN]: the negative-log IC50 (pIC50) is 4.79 in data set [1]; 4.66 in the data set with NCI-H446; > 5.81 in the data set on NCI-H146; 6.72 in the data set with SHP77; < 4.00 in the data set with NCI-H209; < 4.00 with NCI-H1048. The same compound gave a pIC50 in the data set on NCI-H82 of 6.39. Moreover, the half-inhibitory concentration (IC50) at 72 h in [2] is 0.26 µM; in data set [3], < 0.07 µM.

For `CC1(C)CCN(Cc2cc3c(cc2-c2cc4ccc5c(c4cn2)OCO5)OCO3)C1`, the pIC50 in data set [1] was 4.86; in the data set on NCI-H446, 4.90; in the data set with NCI-H146 it was 4.85; with SHP77 it was 4.79; with NCI-H209, 4.51; in the data set on NCI-H1048, 5.14. For the same compound, the pIC50 with NCI-H82 is 4.82. For the same compound, the half-inhibitory concentration (IC50) at 72 h in data set [2] turned out to be 24.8 µM; in data set [3], 17 µM.

For the compound `CC1(C)CCN(Cc2cc3c(cc2-c2cc4ccc5c(c4cn2)OCO5)OCO3)CC1`, the negative-log IC50 (pIC50) is < 4.00 in [1]; 4.25 in the data set with NCI-H446; < 4.00 in the data set with NCI-H146; < 4.00 in the data set on SHP77; < 4.00 with NCI-H209; < 4.00 in the data set on NCI-H1048. Moreover, the negative-log IC50 (pIC50) with NCI-H82 was < 4.00. Besides, the IC50 at 72 h in data set [2] and in data set [3] was > 100 µM each time.

As a reminder, the pIC50 is −log10 of the IC50, conventionally taken in molar units. A lower pIC50 goes with a high IC50. As a reminder, the IC50 is the concentration needed to halve the response being measured.

Values taken from ChEMBL document CHEMBL6153083, “Synthesis, Structural Modification, and Antismall Cell Lung Cancer Activity of 3-Arylisoquinolines with Dual Inhibitory Activity on Topoisomerase I and II” (J Med Chem, 2025).
